In patent US10584128B2, “Bicyclic dihydropyrimidine-carboxamide derivatives as Rho-Kinase inhibitors” (CHIESI FARMACEUTICI S.p.A., priority 2016, dated 2020):

Tests used:
Rho kinase 1 = Rho kinase 1 (Homo sapiens, UniProt Q13464); assay: In vitro Rho kinase inhibitory activity assay (ADP-Glo kit, Myelin Basic Protein substrate); assay type: biochemical; settings: 10 μM ATP, 25° C., read-out: ROCK1 inhibitory activity (Ki, range of activity)
Procedure, shortened: (§1)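 Kinase activity is measured as ADP production (ADP-Glo, luminescence) after 1 hour at 25 °C with 10 μM ATP and 2.5 μM Myelin Basic Protein, following 30 min enzyme–compound preincubation. Buffer is 40 mM Tris pH7.5, 20 mM MgCl2, 0.1 mg/ml BSA, 50 μM DTT.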

Rho kinase 2 = Rho kinase 2 (Homo sapiens, UniProt O75116); assay: as above; assay type: biochemical; settings: 10 μM ATP, 25° C., read-out: ROCK2 inhibitory activity (Ki, range of activity)
Procedure, shortened: as §1

Rho kinase 1, sequence (Q13464 whole entry): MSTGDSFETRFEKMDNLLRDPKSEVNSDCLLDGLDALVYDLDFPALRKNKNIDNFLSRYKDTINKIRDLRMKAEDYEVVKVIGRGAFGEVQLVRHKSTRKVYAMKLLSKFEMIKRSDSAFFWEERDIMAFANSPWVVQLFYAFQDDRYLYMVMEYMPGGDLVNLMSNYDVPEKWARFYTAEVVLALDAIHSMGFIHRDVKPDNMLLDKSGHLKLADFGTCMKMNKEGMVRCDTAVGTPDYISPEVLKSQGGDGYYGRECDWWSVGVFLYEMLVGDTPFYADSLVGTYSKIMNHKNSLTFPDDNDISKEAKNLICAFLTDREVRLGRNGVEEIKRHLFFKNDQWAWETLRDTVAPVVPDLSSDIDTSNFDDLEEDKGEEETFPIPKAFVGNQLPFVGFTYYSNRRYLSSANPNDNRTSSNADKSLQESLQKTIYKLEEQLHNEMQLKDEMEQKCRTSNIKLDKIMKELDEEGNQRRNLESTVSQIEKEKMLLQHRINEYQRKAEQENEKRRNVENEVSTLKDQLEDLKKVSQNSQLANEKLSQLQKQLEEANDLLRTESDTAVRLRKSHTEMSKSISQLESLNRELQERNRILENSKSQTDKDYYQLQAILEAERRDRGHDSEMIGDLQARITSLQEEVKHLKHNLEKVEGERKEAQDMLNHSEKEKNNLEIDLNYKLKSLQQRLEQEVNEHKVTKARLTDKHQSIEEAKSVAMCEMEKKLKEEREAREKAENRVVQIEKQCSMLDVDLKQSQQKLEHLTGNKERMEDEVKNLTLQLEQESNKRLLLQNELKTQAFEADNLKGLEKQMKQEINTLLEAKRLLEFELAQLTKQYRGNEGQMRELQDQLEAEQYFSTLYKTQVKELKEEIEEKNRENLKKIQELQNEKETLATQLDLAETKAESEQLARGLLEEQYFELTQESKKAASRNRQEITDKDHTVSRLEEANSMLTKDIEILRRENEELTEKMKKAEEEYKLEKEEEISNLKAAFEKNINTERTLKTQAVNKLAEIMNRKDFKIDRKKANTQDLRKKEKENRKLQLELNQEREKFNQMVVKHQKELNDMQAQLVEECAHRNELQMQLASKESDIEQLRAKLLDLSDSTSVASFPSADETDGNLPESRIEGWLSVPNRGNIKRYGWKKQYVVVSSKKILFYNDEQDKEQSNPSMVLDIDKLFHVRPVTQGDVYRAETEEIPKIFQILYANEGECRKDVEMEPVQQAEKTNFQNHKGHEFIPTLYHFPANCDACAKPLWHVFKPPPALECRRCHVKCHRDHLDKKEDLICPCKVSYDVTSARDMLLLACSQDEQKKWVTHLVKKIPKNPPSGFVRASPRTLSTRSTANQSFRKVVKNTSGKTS
Rho kinase 2, sequence (O75116 whole entry): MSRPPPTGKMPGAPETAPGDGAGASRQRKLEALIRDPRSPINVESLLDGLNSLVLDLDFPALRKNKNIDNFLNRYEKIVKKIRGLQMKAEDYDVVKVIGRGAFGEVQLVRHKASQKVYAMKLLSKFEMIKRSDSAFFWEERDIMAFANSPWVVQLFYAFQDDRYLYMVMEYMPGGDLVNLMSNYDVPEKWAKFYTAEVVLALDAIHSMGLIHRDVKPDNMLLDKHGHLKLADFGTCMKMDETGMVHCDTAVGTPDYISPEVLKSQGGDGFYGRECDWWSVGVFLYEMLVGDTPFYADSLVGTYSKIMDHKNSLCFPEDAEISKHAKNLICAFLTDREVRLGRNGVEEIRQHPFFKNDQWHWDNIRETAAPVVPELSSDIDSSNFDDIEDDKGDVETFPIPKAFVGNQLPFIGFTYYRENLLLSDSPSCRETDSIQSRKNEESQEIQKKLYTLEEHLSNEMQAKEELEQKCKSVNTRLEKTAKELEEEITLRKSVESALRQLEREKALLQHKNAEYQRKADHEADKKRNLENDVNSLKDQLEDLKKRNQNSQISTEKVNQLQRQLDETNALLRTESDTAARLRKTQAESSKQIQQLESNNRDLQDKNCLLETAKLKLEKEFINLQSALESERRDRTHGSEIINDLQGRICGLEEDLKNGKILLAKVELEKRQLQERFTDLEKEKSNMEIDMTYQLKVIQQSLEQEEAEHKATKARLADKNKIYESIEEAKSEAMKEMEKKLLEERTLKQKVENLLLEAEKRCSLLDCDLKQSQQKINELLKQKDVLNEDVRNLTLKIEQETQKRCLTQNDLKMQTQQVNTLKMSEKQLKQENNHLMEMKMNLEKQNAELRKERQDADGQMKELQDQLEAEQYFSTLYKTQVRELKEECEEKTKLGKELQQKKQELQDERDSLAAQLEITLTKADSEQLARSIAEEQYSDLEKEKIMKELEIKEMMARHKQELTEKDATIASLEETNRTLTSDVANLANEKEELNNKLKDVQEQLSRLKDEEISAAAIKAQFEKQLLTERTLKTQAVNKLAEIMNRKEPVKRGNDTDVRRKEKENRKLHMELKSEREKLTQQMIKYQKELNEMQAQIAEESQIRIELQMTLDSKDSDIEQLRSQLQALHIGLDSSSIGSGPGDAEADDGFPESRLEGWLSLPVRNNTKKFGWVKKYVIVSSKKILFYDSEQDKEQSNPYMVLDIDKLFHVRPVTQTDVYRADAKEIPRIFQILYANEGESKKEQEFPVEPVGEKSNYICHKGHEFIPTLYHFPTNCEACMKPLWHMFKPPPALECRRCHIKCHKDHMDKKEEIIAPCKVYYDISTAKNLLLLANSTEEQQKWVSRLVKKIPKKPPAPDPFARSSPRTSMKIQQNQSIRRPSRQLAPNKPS

Ki (Rho kinase 1)	Ki (Rho kinase 2)	Structure (SMILES)
< 0.05 µM	< 0.05 µM	CC1=C(C(=O)Nc2ccc3[nH]ncc3c2)C(c2ccc(C(F)(F)F)cc2)n2nnnc2N1 (single isomer, unassigned) [Example 27A, N-(1H-indazol-5-yl)-5-methyl-7-(4-(trifluoromethyl)phenyl)-4,7-dihydrotetrazolo[1,5-a]pyrimidine-6-carboxamide]
< 0.05 µM	< 0.05 µM	CC1=C(C(=O)Nc2ccc3cnccc3c2)C(c2ccc(C(F)(F)F)c(F)c2)n2nc(CN3CCOCC3)cc2N1 (centres unmarked) [Example 95, 7-(3-fluoro-4-(trifluoromethyl)phenyl)-N-(isoquinolin-6-yl)-5-methyl-2-(morpholinomethyl)-4,7-dihydropyrazolo[1,5-a]pyrimidine-6-carboxamide]
< 0.05 µM	< 0.05 µM	CC1=C(C(=O)Nc2ccc3cnccc3c2)C(c2ccc(Br)cc2)n2nc(CO)cc2N1 (single isomer, unassigned) [Example 61A, 7-(4-bromophenyl)-2-(hydroxymethyl)-N-(isoquinolin-6-yl)-5-methyl-4,7-dihydropyrazolo[1,5-a]pyrimidine-6-carboxamide]
< 0.05 µM	< 0.05 µM	CCOC(=O)c1cc2n(n1)C(c1ccc(Cl)cc1F)C(C(=O)Nc1ccc3[nH]ncc3c1)=C(C)N2 (single isomer, unassigned) [Example 7A, ethyl 6-((1H-indazol-5-yl)carbamoyl)-7-(4-chloro-2-fluorophenyl)-5-methyl-4,7-dihydropyrazolo[1,5-a]pyrimidine-2-carboxylate]
< 0.05 µM	< 0.05 µM	CC1=C(C(=O)Nc2ccc3cnccc3c2)C(c2ccc(C(F)(F)F)c(F)c2F)n2nc(CO)cc2N1 (centres unmarked) [Example 56, 7-(2,3-difluoro-4-(trifluoromethyl)phenyl)-2-(hydroxymethyl)-N-(isoquinolin-6-yl)-5-methyl-4,7-dihydropyrazolo[1,5-a]pyrimidine-6-carboxamide]
< 0.05 µM	< 0.05 µM	CC1=C(C(=O)Nc2ccc3cnccc3c2)C(c2ccc(C(F)(F)F)c(F)c2)n2nc(CN3CCS(=O)(=O)CC3)cc2N1 (centres unmarked) [Example 108, 2-((1,1-Dioxidothiomorpholino)methyl)-7-(3-fluoro-4-(trifluoromethyl)phenyl)-N-(isoquinolin-6-yl)-5-methyl-4,7-dihydropyrazolo[1,5-a]pyrimidine-6-carboxamide]
< 0.05 µM	< 0.05 µM	CC1=C(C(=O)Nc2ccc3[nH]ncc3c2)C(c2ccc(Cl)cc2F)n2nc(CO)cc2N1 (centres unmarked) [Example 68, 7-(4-chloro-2-fluorophenyl)-2-(hydroxymethyl)-N-(1H-indazol-5-yl)-5-methyl-4,7-dihydropyrazolo[1,5-a]pyrimidine-6-carboxamide]
< 0.05 µM	< 0.05 µM	CCOC(=O)c1cc2n(n1)C(c1ccc(C)cc1)C(C(=O)Nc1ccc3[nH]ncc3c1)=C(C)N2 (centres unmarked) [Example 3, ethyl 6-((1H-indazol-5-yl)carbamoyl)-5-methyl-7-(p-tolyl)-4,7-dihydropyrazolo[1,5-a]pyrimidine-2-carboxylate]
< 0.05 µM	< 0.05 µM	CC1=C(C(=O)Nc2ccc3cnccc3c2)C(c2ccc(C(F)(F)F)c(F)c2)n2nc(C(=O)NCCN3CCN(C)CC3)cc2N1 (centres unmarked) [Example 81, 7-(3-fluoro-4-(trifluoromethyl)phenyl)-N6-(isoquinolin-6-yl)-5-methyl-N2-(2-(4-methylpiperazin-1-yl)ethyl)-4,7-dihydropyrazolo[1,5-a]pyrimidine-2,6-dicarboxamide]
< 0.05 µM	< 0.05 µM	CC1=C(C(=O)Nc2ccc3cnccc3c2)C(c2ccc(C(F)(F)F)c(F)c2)n2nc(N3CCN(C)CC3)cc2N1 (centres unmarked) [Example 136, 7-(3-Fluoro-4-(trifluoromethyl)phenyl)-N-(isoquinolin-6-yl)-5-methyl-2-(4-methylpiperazin-1-yl)-4,7-dihydropyrazolo[1,5-a]pyrimidine-6-carboxamide]
< 0.05 µM	< 0.05 µM	CC1=C(C(=O)Nc2ccc3cnccc3c2)C(C2CCC(C(F)(F)F)CC2)n2nc(CN(C)C)cc2N1 (centres unmarked) [Example 120, 2-((dimethylamino)methyl)-N-(isoquinolin-6-yl)-5-methyl-7-(4-(trifluoromethyl)cyclohexyl)-4,7-dihydropyrazolo[1,5-a]pyrimidine-6-carboxamide]
< 0.05 µM	< 0.05 µM	CC1=C(C(=O)Nc2cc3cn[nH]c3cc2F)C(c2ccc(Cl)nc2)n2nc(C(F)(F)F)cc2N1 (centres unmarked) [Example 39, 7-(6-chloropyridin-3-yl)-N-(6-fluoro-1H-indazol-5-yl)-5-methyl-2-(trifluoromethyl)-4,7-dihydropyrazolo[1,5-a]pyrimidine-6-carboxamide]
< 0.05 µM	< 0.05 µM	CC1=C(C(=O)Nc2ccc3cnccc3c2)C(c2ccc(C(F)(F)F)c(F)c2)n2nc(CN3CC(CN(C)C)C3)cc2N1 (centres unmarked) [Example 106, 2-((3-((dimethylamino)methyl)azetidin-1-yl)methyl)-7-(3-fluoro-4-(trifluoromethyl)phenyl)-N-(isoquinolin-6-yl)-5-methyl-4,7-dihydropyrazolo[1,5-a]pyrimidine-6-carboxamide]
< 0.05 µM	< 0.05 µM	CCOC(=O)c1cc2n(n1)C(c1ccc(C(F)(F)F)cc1)C(C(=O)Nc1ccc3cnccc3c1)=C(C)N2 (centres unmarked) [Example 1, ethyl 6-(isoquinolin-6-ylcarbamoyl)-5-methyl-7-(4-(trifluoromethyl)phenyl)-4,7-dihydropyrazolo[1,5-a]pyrimidine-2-carboxylate]
< 0.05 µM	< 0.05 µM	CC1=C(C(=O)Nc2ccc3[nH]ncc3c2)C(c2ccc(F)cc2)n2ncc(Br)c2N1 (centres unmarked) [Example 22, 3-bromo-7-(4-fluorophenyl)-N-(1H-indazol-5-yl)-5-methyl-4,7-dihydropyrazolo[1,5-a]pyrimidine-6-carboxamide]
0.05 to 0.5 µM	0.05 to 0.5 µM	COc1ccccc1-c1cc2n(n1)C(c1ccc(F)cc1)C(C(=O)Nc1ccc3[nH]ncc3c1)=C(C)N2 (centres unmarked) [Example 21, 7-(4-fluorophenyl)-N-(1H-indazol-5-yl)-2-(2-methoxyphenyl)-5-methyl-4,7-dihydropyrazolo[1,5-a]pyrimidine-6-carboxamide]
0.05 to 0.5 µM	< 0.05 µM	CC1=C(C(=O)Nc2ccc3cnccc3c2)C(c2ccc(C(F)(F)F)c(F)c2)n2nc(CN(C)CC3CCN(C)CC3)cc2N1 (single isomer, unassigned) [Example 104B, 7-(3-fluoro-4-(trifluoromethyl)phenyl)-N-(isoquinolin-6-yl)-5-methyl-2-((methyl((1-methylpiperidin-4-yl)methyl)amino)methyl)-4,7-dihydropyrazolo[1,5-a]pyrimidine-6-carboxamide]
< 0.05 µM	< 0.05 µM	CCOC(=O)c1cc2n(n1)C(c1ccc(O)cc1)C(C(=O)Nc1ccc3cnccc3c1)=C(C)N2 (centres unmarked) [Example 9, ethyl 7-(4-hydroxyphenyl)-6-(isoquinolin-6-ylcarbamoyl)-5-methyl-4,7-dihydropyrazolo[1,5-a]pyrimidine-2-carboxylate]
< 0.05 µM	< 0.05 µM	CC1=C(C(=O)Nc2ccc3cnccc3c2)C(c2ccc(C(F)(F)F)c(F)c2F)n2nc(CN(C)C)cc2N1 (single isomer, unassigned) [Example 122b, 7-(2,3-difluoro-4-(trifluoromethyl)phenyl)-2-((dimethylamino)methyl)-N-(isoquinolin-6-yl)-5-methyl-4,7-dihydropyrazolo[1,5-a]pyrimidine-6-carboxamide]
< 0.05 µM	< 0.05 µM	CC1=C(C(=O)Nc2ccc3[nH]ncc3c2)C(c2ccc(F)cc2)n2nc(C(=O)O)cc2N1 (centres unmarked) [Example 75, 6-((1H-indazol-5-yl)carbamoyl)-7-(4-fluorophenyl)-5-methyl-4,7-dihydropyrazolo[1,5-a]pyrimidine-2-carboxylic acid]
0.05 to 0.5 µM	0.05 to 0.5 µM	CC1=C(C(=O)Nc2cc3cn[nH]c3cc2F)C(c2ccc(C(F)(F)F)c(F)c2)n2nnnc2N1 (single isomer, unassigned) [Example 40B, N-(6-fluoro-1H-indazol-5-yl)-7-(3-fluoro-4-(trifluoromethyl)phenyl)-5-methyl-4,7-dihydrotetrazolo[1,5-a]pyrimidine-6-carboxamide]
< 0.05 µM	< 0.05 µM	CC1=C(C(=O)Nc2ccc3cnccc3c2)C(c2ccc(C)cc2F)n2nc(CO)cc2N1 (centres unmarked) [Example 59, 7-(2-fluoro-4-methylphenyl)-2-(hydroxymethyl)-N-(isoquinolin-6-yl)-5-methyl-4,7-dihydropyrazolo[1,5-a]pyrimidine-6-carboxamide]
< 0.05 µM	< 0.05 µM	CC1=C(C(=O)Nc2ccc3[nH]ncc3c2)C(c2ccc(F)cc2)n2nc(C(=O)N3CCOCC3)cc2N1 (centres unmarked) [Example 90, 7-(4-fluorophenyl)-N-(1H-indazol-5-yl)-5-methyl-2-(morpholine-4-carbonyl)-4,7-dihydropyrazolo[1,5-a]pyrimidine-6-carboxamide]
< 0.05 µM	< 0.05 µM	CCOC(=O)c1cc2n(n1)C(c1ccc(F)cc1)C(C(=O)Nc1ccc3[nH]ncc3c1)=C(C)N2 (single isomer, unassigned) [Example 4B, ethyl 6-((1H-indazol-5-yl)carbamoyl)-7-(4-fluorophenyl)-5-methyl-4,7-dihydropyrazolo[1,5-a]pyrimidine-2-carboxylate]
< 0.05 µM	< 0.05 µM	CC1=C(C(=O)Nc2ccc3cnccc3c2)C(c2ccc(C(F)(F)F)c(F)c2)n2nc(CN3CCCC3)cc2N1 (centres unmarked) [Example 102, 7-(3-fluoro-4-(trifluoromethyl)phenyl)-N-(isoquinolin-6-yl)-5-methyl-2-(pyrrolidin-1-ylmethyl)-4,7-dihydropyrazolo[1,5-a]pyrimidine-6-carboxamide]
